Assays:
Format in all cases: cell-based
Human GPR40 [1] = target: T1, Human GPR40 (Homo sapiens, UniProt O14842); experiment: Inositol Phosphate Turnover (IP1) Assay 2 (HEK cells stably expressing human GPR40, CisBio IP-One kit); set-up: expressed in transfected cells; host or cells: HEK cells stably expressing the aequorin reporter; details: HEK cells stably expressing human GPR40, 384-well
Protocol: (§1) Human and mouse GPR40 stable cell-lines were generated in CHO cells stably expressing NFAT BLA (Beta-lactamase). A human GPR40 stable cell-line was generated in HEK cells stably expressing the aequorin expressing reporter. The expression plasmids were transfected using lipofectamine (Life Technologies) following manufacturer's instructions. Stable cell-lines were generated following drug selection.
The assay was performed in 384-well format. HEK cells stably expressing human GPR40 were plated at 15,000 cells per well in growth medium (DMEM/10% fetal calf serum). Cell plates were then incubated 16 hours at 37 degrees in a 5% CO2 incubator.
Measurement of Inositol Phosphate Turnover (IP1) was performed using the CisBio IP-One kit (Part number 62IPAPEB). After the 16 hour incubation, the cells were washed with HEPES buffer and 10 ul of stimulation buffer (prepared as described in the kit) was added to each well. In a separate plate, compounds were diluted in DMSO (400-fold over the final concentration in the assay well) and 25 nl was acoustically transferred to the appropriate well in the assay cell plate. The plates were then incubated for 60 minutes at 37 degrees. 10 ul of detection buffer (also prepared as described in the IP-One kit) was added to each well and the plates were incubated for 60 minutes in the dark. The plates were then read in a Perkin Elmer EnVision or equivalent reader able to measure FRET. Fluorescent ratio of emission at 665 and 620 nm was then converted to IP1 concentration by back calculating from an IP1 standard curve prepared at the time of the assay.

Human GPR40 [2] = target: T1, Human GPR40; experiment: Inositol Phosphate Turnover Assay 1 (HEK cells stably expressing human GPR40); set-up: expressed in transfected cells; host or cells: HEK cells stably expressing the aequorin reporter; details: HEK cells stably expressing human GPR40, 96-well, 3H-inositol; read-out: Human GPR40 IP1 Assay 1, EC50
Protocol: as §1
The assay was performed in 96-well format. HEK cells stably expressing human GPR40 were plated to be 60-80% confluent within 72 h. After 72 h, the plates were aspirated and the cells washed with inositol-free DMEM (ICN). The wash media was replaced with 150 μL of 3H-inositol labeling media (inositol-free media containing 0.4% human albumin or 0.4% mouse albumin, 1× pen/strep antibiotics, glutamine, 25 mM HEPES to which was added 3H-myo-inositol NEN #NET114A 1 mCi/mL, 25 Ci/mmol diluted 1:150 in loading media with a final specific radioactivity of 1 μCi/150 μL). Alternatively, the human and mouse albumin can be added after the overnight labeling step before the addition of LiCl.
The assay was typically run the next day after 18 h labeling. On the day of the assay, 5 μL of 300 mM LiCl was added to all wells and incubated at 37 degrees for 20 min. 0.75 μL of 200× compounds were added and incubated with the cells for 60 min at 37 degrees. The media was then aspirated off and the assay terminated with the addition of 60 μL 10 mM formic acid. The cells were lysed for 60 min at room temperature. 15-30 μL of lysate was mixed with 70 μL/1 mg YSi SPA beads (Amersham) in clear bottom Isoplates. The plates were shaken for 2 h at room temperature. Beads were allowed to settle and the plates were counted in the Wallac Microbeta.

Human GPR40 [3] = target: T1, Human GPR40; experiment: FLIPR assay (agonist-induced calcium mobilization, GPR40/CHO NFAT BLA cells); set-up: expressed in transfected cells
Protocol: as §1
FLIPR (Fluorimetric Imaging Plate Reader, Molecular Devices) assays were performed to measure agonist-induced calcium mobilization of the stable clones. For the FLIPR assay, one day before assay, GPR40/CHO NFAT BLA cells were seeded into black-wall-clear-bottom 384-well plates (Costar) at 1.4×10e4 cells/20 μL medium/well. The cells were incubated with 20 μl/well of the assay buffer (HBSS, 0.1% BSA, 20 mM HEPES, 2.5 mM probenecid, pH 7.4) containing 8 μM fluo-4, AM, 0.08% pluronic acid at room temperature for 100 minutes. Fluorescence output was measured using FLIPR. Compounds were dissolved in DMSO and diluted to desired concentrations with assay buffer. 13.3 μL/well of compound solution was added.

T1 sequence (O14842 whole entry): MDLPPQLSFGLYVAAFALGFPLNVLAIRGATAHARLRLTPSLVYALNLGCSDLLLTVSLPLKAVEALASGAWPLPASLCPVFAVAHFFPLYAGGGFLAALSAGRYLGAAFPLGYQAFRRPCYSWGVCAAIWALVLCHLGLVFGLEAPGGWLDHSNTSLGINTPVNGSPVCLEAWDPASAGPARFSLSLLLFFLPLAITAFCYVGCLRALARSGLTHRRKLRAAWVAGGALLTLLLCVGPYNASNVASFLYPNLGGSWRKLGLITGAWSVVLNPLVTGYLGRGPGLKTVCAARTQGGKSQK

SMILES | EC50 (Human GPR40 [1]) [nM] | EC50 (Human GPR40 [2]) [nM] | EC50 (Human GPR40 [3]) [nM]
Cc1cc(-c2nnn(CC(C)(C)O)n2)cc(C)c1-c1cc(COc2cc3c(cn2)[C@H]2[C@@H](C3)[C@@H]2C(=O)O)c(F)cc1F [Compound-16, (5aR,6S,6aS)-3-((4,6-difluoro-4′-(2-(2-hydroxy-2-methylpropyl)-2H-tetrazol-5-yl)-2′,6′-dimethyl-[1,1′-biphenyl]-3-yl)methoxy)-5,5a,6,6a-tetrahydrocyclopropa[4,5]cyclopenta[1,2-c]pyridine-6-carboxylic acid] | 1 | 9.4 | 
C[C@]1(O)C[C@@H](COc2c(F)cc(-c3cc(COc4cc5c(cn4)[C@H]4[C@@H](C5)[C@@H]4C(=O)O)c(F)cc3C(F)(F)F)cc2F)C1 [Compound-2, (5aR,6S,6aS)-3-{[3′,4,5′-trifluoro-4′-(((1s,3s)-3-hydroxy-3-methylcyclobutyl)methoxy)-6-(trifluoromethyl)-[1,1′-biphenyl]-3-yl]methoxy}-5,5a,6,6a-tetrahydrocyclopropa[4,5]cyclopenta[1,2-c]pyridine-6-carboxylic acid] |  | 6.9 | 5.8
Cn1nnc(-c2ccc(-c3cc(COc4cc5c(cn4)[C@H]4[C@@H](C5)[C@@H]4C(=O)O)c(F)cc3C(F)(F)F)c(F)c2)n1 [Compound-7, (5aR,6S,6aS)-3-((2′,4-difluoro-4′-(2-methyl-2H-tetrazol-5-yl)-6-(trifluoromethyl)-[1,1′-biphenyl]-3-yl)methoxy)-5,5a,6,6a-tetrahydrocyclopropa[4,5]cyclopenta[1,2-c]pyridine-6-carboxylic acid] |  | 3.4 | 6.7
Cc1nc(OC[C@H]2C[C@@](C)(O)C2)ccc1-c1cc(COc2cc3c(cn2)[C@H]2[C@@H](C3)[C@@H]2C(=O)O)c(F)cc1C(F)(F)F [Compound-14, (5 aR,6S,6aS)-3-((2-fluoro-5-(6-(((1s,3s)-3-hydroxy-3-methylcyclobutyl)methoxy)-2-methylpyridin-3-yl)-4-(trifluoromethyl)benzyl)oxy)-5,5a,6,6a-tetrahydrocyclopropa-[4,5]cyclopenta[1,2-c]pyridine-6-carboxylic acid] | 1.2 | 6.3 | 
CS(=O)(=O)c1ccc(-c2ccc(-c3cc(COc4cc5c(cn4)[C@H]4[C@@H](C5)[C@@H]4C(=O)O)c(F)cc3C(F)(F)F)cc2)cc1 [Compound-10, (5aR,6S,6aS)-3-((4-fluoro-4″-(methylsulfonyl)-6-(tri-fluoromethyl)-[1,1′;4′,1″- terphenyl]-3-yl)methoxy)-5,5a,6,6a-tetrahydrocyclo-propa[4,5]cyclpenta [1,2-c]pyridine-6-carboxylic acid] |  | 2.9 | 
O=C(O)[C@H]1[C@@H]2Cc3cc(OCc4cc(-c5ccc(-c6ccc(Cl)cc6F)cc5F)c(C(F)(F)F)cc4F)ncc3[C@@H]21 [Compound-8, (5aR,6S,6aS)-3-((4″-chloro-2′,2″,4-trifluoro-6-(trifluoromethyl)-[1,1′:4′,1″-terphenyl]-3-yl)methoxy)-5,5a,6,6a-tetrahydrocyclopropa[4,5]cyclopenta[1,2-c]pyridine-6-carboxylic acid] |  | 63 | 12
CC1(O)CCN(c2ccc(-c3cc(COc4cc5c(cn4)[C@H]4[C@@H](C5)[C@@H]4C(=O)O)c(F)cc3C(F)(F)F)c(F)c2)CC1 [Compound-11, (5aR,6S,6aS)-3-((2′,4-difluoro-4′-(4-hydroxy-4-methylpiperidin-1-yl)-6-(trifluoromethyl)-[1,1′-biphenyl]-3-yl)methoxy)-5,5a,6,6a-tetrahydrocyclopropa[4,5]cyclopenta[1,2-c]pyridine-6-carboxylic acid] |  | 6.8 | 5.6
N#Cc1ccc(-c2ccc(-c3cc(COc4cc5c(cn4)[C@H]4[C@@H](C5)[C@@H]4C(=O)O)c(F)cc3C(F)(F)F)cc2)cc1 [Compound-9, (5aR,6S,6aS)-3-((4″-cyano-4-fluoro-6-(trifluoromethyl)-[1,1′:4′,1″-terphenyl]-3-yl)methoxy)-5,5a,6,6a-tetrahydrocyclopropa[4,5] cyclopenta[1,2-c]pyridine-6-carboxylic acid] |  | 8.9 | 
Cc1cc(O[C@H]2C[C@H](S(C)(=O)=O)C2)cc(C)c1-c1cc(COc2cc3c(cn2)[C@H]2[C@@H](C3)[C@@H]2C(=O)O)c(F)cc1F [Compound-15] | 1.2 | 6.7 | 

Results, then the compound that gave them:

EC50 (Human GPR40 [1]) [nM] | EC50 (Human GPR40 [2]) [nM] | EC50 (Human GPR40 [3]) [nM] | SMILES
1 |  |  | Cc1cc(OC2CC(C(C)(O)CO)C2)cc(C)c1-c1cc(COc2cc3c(cn2)C2C(C3)C2C(=O)O)c(F)cc1F (single isomer, unassigned) [Compound-21]
1.9 |  |  | Cc1cc(OC[C@H]2C[C@@](O)(CO)C2)cc(C)c1-c1cc(COc2cc3c(cn2)[C@H]2[C@@H](C3)[C@@H]2C(=O)O)c(F)cc1F (single isomer, unassigned) [Compound-25]
1 | 7.6 |  | Cc1nc(N2Cc3cn(CC(C)(C)O)nc3C2)ccc1-c1cc(COc2cc3c(cn2)[C@H]2[C@@H](C3)[C@@H]2C(=O)O)c(F)cc1C(F)(F)F [Compound-18, (5aR,6S,6aS)-3-((2-fluoro-5-(6-(2-(2-hydroxy-2-methylpropyl)pyrrolo[3,4-c]pyrazol-5(2H,4H,6H)-yl)-2-methylpyridin-3-yl)-4-(trifluoromethyl)benzyl)oxy)-5,5a,6,6a-tetrahydrocyclopropa[4,5]cyclopenta[1,2-c]pyridine-6-carboxylic acid]
2.1 |  |  | Cc1nc(OC2CC(S(C)(=O)=O)C2)ccc1-c1cc(COc2cc3c(cn2)[C@H]2[C@@H](C3)[C@@H]2C(=O)O)c(F)cc1C(F)(F)F (stereo partly drawn) [Compound-19]
1 |  |  | O=C(O)[C@H]1[C@@H]2Cc3cc(OCc4cc(-c5ccc(OC[C@H]6C[C@@](O)(CO)C6)cc5Cl)c(F)cc4F)ncc3[C@@H]21 (single isomer, unassigned) [Compound-23]
0.7 |  |  | Cc1cc(OC2CC(C(C)(O)CO)C2)cc(C)c1-c1cc(COc2cc3c(cn2)C2C(C3)C2C(=O)O)c(F)cc1F (single isomer, unassigned) [Compound-22]
0.8 |  |  | Cc1cc(-c2ncn(CC(C)(C)O)n2)cc(C)c1-c1cc(COc2cc3c(cn2)[C@H]2[C@@H](C3)[C@@H]2C(=O)O)c(F)cc1F [Compound-17, (5aR,6S,6aS)-3-((4,6-difluoro-4′-(1-(2-hydroxy-2-methylpropyl)-1H-1,2,4-triazol-3-yl)-2′,6′-dimethyl-[1,1′-biphenyl]-3-yl)methoxy)-5,5a,6,6a-tetrahydrocyclopropa[4,5]cyclopenta[1,2-c]pyridine-6-carboxylic acid]
1.6 |  |  | Cc1cc(OC[C@H]2C[C@](O)(CO)C2)cc(C)c1-c1cc(COc2cc3c(cn2)[C@H]2[C@@H](C3)[C@@H]2C(=O)O)c(F)cc1F (single isomer, unassigned) [Compound-26]
3.1 |  |  | Cc1cc(OC[C@H]2C[C@](C)(O)[C@](C)(O)C2)cc(C)c1-c1cc(COc2cc3c(cn2)[C@H]2[C@@H](C3)[C@@H]2C(=O)O)c(F)cc1F [Compound-20, (5aR,6S,6aS)-3-((4′-(((1s,3R,4S)-3,4-dihydroxy-3,4-dimethylcyclopentyl)methoxy)-4,6-difluoro-2′,6′-dimethyl-[1,1′-biphenyl]-3-yl)methoxy)-5,5a,6,6a-tetrahydrocyclopropa-[4,5]cyclopenta[1,2-c]pyridine-6-carboxylic acid]
1.3 |  |  | O=C(O)[C@H]1[C@@H]2Cc3cc(OCc4cc(-c5ccc(OC[C@H]6C[C@](O)(CO)C6)cc5Cl)c(F)cc4F)ncc3[C@@H]21 (single isomer, unassigned) [Compound-24]
